# Measurements from patent US8268848B2, “Cyclopropane compound” (Eisai R&D Management Co., Ltd., priority 2010, dated 2012).
# Like-named read-outs stand apart in the source and are kept apart here.
# Experiments:
# OX1 = biological target: T1, OX1 (Homo sapiens, UniProt O43613); assay: Measurement of orexin receptor-binding ability ([125I]-OX-A, cell membranes, OX1); set-up: expressed in transfected cells; host or cells: CHO cells (membrane preparation)
# T1 sequence (O43613 1-425): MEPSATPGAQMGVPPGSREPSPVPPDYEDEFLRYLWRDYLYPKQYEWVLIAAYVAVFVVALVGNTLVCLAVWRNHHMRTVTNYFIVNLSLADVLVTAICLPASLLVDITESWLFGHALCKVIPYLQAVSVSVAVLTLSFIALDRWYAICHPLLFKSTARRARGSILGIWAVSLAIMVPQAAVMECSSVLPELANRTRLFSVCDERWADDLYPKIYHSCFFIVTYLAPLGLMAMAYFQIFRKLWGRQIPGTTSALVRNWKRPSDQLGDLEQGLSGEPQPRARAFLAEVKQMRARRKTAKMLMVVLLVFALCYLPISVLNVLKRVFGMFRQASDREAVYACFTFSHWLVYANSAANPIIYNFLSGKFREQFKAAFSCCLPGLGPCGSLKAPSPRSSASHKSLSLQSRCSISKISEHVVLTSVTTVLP
# Description: (§1) 1. Measurement of Orexin Receptor-Binding Ability
# (§2) The assay was carried out using a 96-well Wheat Germ Agglutinin Flash Plate (PerkinElmer). The volume in a single assay well was 100 ul, and the composition of the reaction solution was as follows:
# (§3) 25 mM HEPES (pH 7.5), 1 mM CaCl2, 4.5 mM MgCl2, 0.5% BSA (bovine serum albumin), 0.1% sodium azide, 0.05% Tween-20, and 0.2% DMSO.
# (§4) Cell membranes were prepared from recombinant CHO cells that expressed OX2 or OX1. The cell membranes were used in an amount of 5 μg protein/assay. […] Finally, the radioactivity of each well was measured using a scintillation counter (TopCount, PerkinElmer).
# OX2 = biological target: T2, OX2 (Homo sapiens, UniProt O43614); assay: Measurement of orexin receptor-binding ability ([125I]-OX-A, cell membranes, OX2); set-up: expressed in transfected cells; host or cells: CHO cells (membrane preparation); conditions: membranes of recombinant CHO cells expressing OX2, 0.2 nM [125I]-OX-A
# T2 sequence (O43614 1-444): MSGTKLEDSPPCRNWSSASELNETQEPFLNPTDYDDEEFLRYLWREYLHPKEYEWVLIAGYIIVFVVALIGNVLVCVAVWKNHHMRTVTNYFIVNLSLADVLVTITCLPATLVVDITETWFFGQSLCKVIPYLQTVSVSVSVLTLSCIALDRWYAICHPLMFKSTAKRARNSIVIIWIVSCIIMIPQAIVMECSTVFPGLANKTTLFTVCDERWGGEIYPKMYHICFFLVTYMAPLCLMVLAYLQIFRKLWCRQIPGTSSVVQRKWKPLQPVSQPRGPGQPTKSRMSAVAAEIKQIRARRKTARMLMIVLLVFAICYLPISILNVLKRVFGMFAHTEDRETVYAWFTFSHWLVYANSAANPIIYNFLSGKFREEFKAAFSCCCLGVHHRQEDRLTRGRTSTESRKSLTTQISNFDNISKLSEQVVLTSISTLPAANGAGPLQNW
# Description: as §1, §2, §3, §4
# [1] = membranes of recombinant CHO cells expressing OX1, 0.2 nM [125I]-OX-A, read-out: OX1 (IC50)
SMILES,IC50 (OX1),IC50 (OX2; OX2 (IC50) nM),IC50 (OX1; [1]),IC50 (OX2; read-out: OX2 (IC50))
"COCc1cc(NC(=O)[C@@H]2C[C@@]2(COc2cnc(C)nc2C)c2ccc(F)cc2)ncc1F [Example 109, (1R,2S)-2-{[(2,4-dimethylpyrimidin-5-yl)oxy]methyl}-N-(5-fluoro-4-methoxymethylpyridin-2-yl)-2-(4-fluorophenyl)cyclopropanecarboxamide]",0.012 µM,5.8 nM,–,–
"CCc1nc(C)ncc1OC[C@@]1(c2cccc(F)c2)C[C@H]1C(=O)Nc1ccc(Cl)cn1 [Example 243, (1R,2S)-N-(5-chloropyridin-2-yl)-2-{[(4-ethyl-2-methylpyrimidin-5-yl)oxy]methyl}-2-(3-fluorophenyl)cyclopropanecarboxamide]",0.002 µM,3.3 nM,–,–
Cc1ncc(OCC2(c3cccc(C(F)(F)F)c3)CC2C(=O)Nc2cccnc2)c(C)n1 (stereo not drawn) [Example 277],–,–,2.21 µM,104 nM
Cc1ncc(OCC2(c3ccccc3C)CC2C(=O)Nc2cccnc2)c(C)n1 (stereo not drawn) [Example 180],–,–,0.231 µM,33 nM
Cc1ncc(N(C)C[C@@]2(c3cccc(F)c3)C[C@H]2C(=O)Nc2ccc(F)c(F)c2)c(C)n1 [Example 296],–,–,> 0.2 µM,8 nM
"CCc1nc(C)ncc1OC[C@@]1(c2ccc(F)cc2)C[C@H]1C(=O)Nc1cc(Cl)ccn1 [Example 247, (1R,2S)-N-(4-chloropyridin-2-yl)-2-{[(4-ethyl-2-methylpyrimidin-5-yl)oxy]methyl}-2-(4-fluorophenyl)cyclopropanecarboxamide]",–,–,0.022 µM,3 nM
Cc1ncc(OCC2(c3cccc(Cl)c3)CC2C(=O)Nc2ccc(F)cn2)c(C)n1 (stereo not drawn) [Example 154],0.006 µM,7 nM,–,–
"Cc1ncc(OC[C@@]2(c3ccc(F)c(F)c3)C[C@H]2C(=O)Nc2ccc(Cl)cn2)c(C)n1 [Example 168, (1R,2S)-N-(5-chloropyridin-2-yl)-2-(3,4-difluorophenyl)-2-{[(2,4-dimethylpyrimidin-5-yl)oxy]methyl}cyclopropanecarboxamide]",0.015 µM,4 nM,–,–
"COCc1nc(C)ncc1OC[C@@]1(c2cc(F)cc(F)c2)C[C@H]1C(=O)Nc1ccccn1 [Example 218, (1R,2S)-2-(3,5-difluorophenyl)-2-{[(4-methoxymethyl-2-methylpyrimidin-5-yl)oxy]methyl}-N-(pyridin-2-yl)cyclopropanecarboxamide]",–,–,0.01 µM,3 nM
Cc1ncc(OCC2(c3ccccc3C)CC2C(=O)Nc2ccc(C#N)cn2)c(C)n1 (stereo not drawn) [Example 178],0.769 µM,–,–,–
COCCc1nc(C)ncc1OC[C@@]1(c2cccc(F)c2)C[C@H]1C(=O)Nc1ccc(F)cc1 [Example 230],–,–,–,16 nM
COc1cc(F)cc(C2(COc3cnc(C)nc3C)CC2C(=O)Nc2ccc(F)cc2)c1 (stereo not drawn) [Example 252],–,–,–,18 nM
"COCc1nc(C)ncc1OC[C@@]1(c2ccc(F)c(F)c2)C[C@H]1C(=O)Nc1ccc(F)c(F)c1 [Example 214, (1R,2S)-N,2-bis(3,4-difluorophenyl)-2-{[(4-methoxymethyl-2-methylpyrimidin-5-yl)oxy]methyl}cyclopropanecarboxamide]",–,–,–,7 nM
"COCc1nc(C)ncc1OC[C@@]1(c2ccc(F)c(F)c2)C[C@H]1C(=O)Nc1ccc(F)cc1F [Example 216, (1R,2S)-N-(2,4-difluorophenyl)-2-(3,4-difluorophenyl)-2-{[(4-methoxymethyl-2-methylpyrimidin-5-yl)oxy]methyl}cyclopropanecarboxamide]",–,–,–,7 nM
Cc1ncc(OC[C@@]2(c3cc(F)cc(F)c3)C[C@H]2c2nc3ncc(Cl)cc3[nH]2)c(C)n1 [Example 307],–,–,–,33 nM
COc1cc([C@]2(COc3cnc(C)nc3C)C[C@H]2C(=O)Nc2ccc(F)cc2)ccc1F [Example 315],–,–,–,208 nM
COc1cccc([C@]2(COc3cnc(C)nc3C)C[C@H]2C(=O)Nc2ccccn2)c1 [Example 188],–,–,–,61 nM
COCc1nc(C)ncc1OCC1(c2cccc(Cl)c2)CC1C(=O)Nc1ccc(Cl)cn1 (stereo not drawn) [Example 223],–,–,–,34 nM
